The numbers were not newly measured in patent US20220080043A1, “OIL/SURFACTANT MIXTURES FOR SELF-EMULSIFICATION” (priority 2019, published 2022), which cites them from elsewhere.

The conditions of this data set: Table 2; surfactants used.

For sorbitan monooleate [Span80], the HLB is on record as 4.3.
